Ki data for 11 compounds are collected here from ChEMBL document CHEMBL1128215, “Introduction of a conformational switching element on a pyrrolidine ring. Synthesis and evaluation of (R*,R*)-(+/-)-methyl 3-acetyl-4-[3- (cyclopentyloxy)-4-methoxyphenyl]-3-methyl-1-pyrrolidinecarboxylate, a potent and selective inhibitor of cAMP-specific phosphodiesterase” (J Med Chem, 1995).

One test addresses Phosphodiesterase 4 (Homo sapiens, UniProt P27815+Q08499+Q07343+Q08493). In words: Inhibition of cAMP hydrolysis by human Phosphodiesterase 4. The format is protein assay.
The target in another test is Phosphodiesterase 1 (Bos taurus, UniProt Q01061+P14100). In words: Inhibition of Phosphodiesterase 1 from bovine aorta. Type of test: protein assay.
Another test deals with Phosphodiesterase 3 (Homo sapiens, UniProt Q14432+Q13370). In words: Inhibition of Phosphodiesterase 3 from human pulmonary artery. Type of test: tissue-based.
Test [1] concerns the target cGMP-specific 3',5'-cyclic phosphodiesterase (Homo sapiens, UniProt O76074). The test can be described thus: Inhibition of Phosphodiesterase 5 isolated from human trachea. The format is tissue-based.
The next test deals with Phosphodiesterase 6. In words: Inhibition of Phosphodiesterase 6 from bovine retina. The format is protein assay, Bos taurus.
In test [2] the target is High affinity 3',5'-cyclic-AMP phosphodiesterase 7A (Homo sapiens, UniProt Q13946). The test can be described thus: Inhibition of human Phosphodiesterase 7.
In test [3] the target is T1, cGMP-dependent 3',5'-cyclic phosphodiesterase (Bos taurus, UniProt P14099).
T1 sequence (P14099 whole entry): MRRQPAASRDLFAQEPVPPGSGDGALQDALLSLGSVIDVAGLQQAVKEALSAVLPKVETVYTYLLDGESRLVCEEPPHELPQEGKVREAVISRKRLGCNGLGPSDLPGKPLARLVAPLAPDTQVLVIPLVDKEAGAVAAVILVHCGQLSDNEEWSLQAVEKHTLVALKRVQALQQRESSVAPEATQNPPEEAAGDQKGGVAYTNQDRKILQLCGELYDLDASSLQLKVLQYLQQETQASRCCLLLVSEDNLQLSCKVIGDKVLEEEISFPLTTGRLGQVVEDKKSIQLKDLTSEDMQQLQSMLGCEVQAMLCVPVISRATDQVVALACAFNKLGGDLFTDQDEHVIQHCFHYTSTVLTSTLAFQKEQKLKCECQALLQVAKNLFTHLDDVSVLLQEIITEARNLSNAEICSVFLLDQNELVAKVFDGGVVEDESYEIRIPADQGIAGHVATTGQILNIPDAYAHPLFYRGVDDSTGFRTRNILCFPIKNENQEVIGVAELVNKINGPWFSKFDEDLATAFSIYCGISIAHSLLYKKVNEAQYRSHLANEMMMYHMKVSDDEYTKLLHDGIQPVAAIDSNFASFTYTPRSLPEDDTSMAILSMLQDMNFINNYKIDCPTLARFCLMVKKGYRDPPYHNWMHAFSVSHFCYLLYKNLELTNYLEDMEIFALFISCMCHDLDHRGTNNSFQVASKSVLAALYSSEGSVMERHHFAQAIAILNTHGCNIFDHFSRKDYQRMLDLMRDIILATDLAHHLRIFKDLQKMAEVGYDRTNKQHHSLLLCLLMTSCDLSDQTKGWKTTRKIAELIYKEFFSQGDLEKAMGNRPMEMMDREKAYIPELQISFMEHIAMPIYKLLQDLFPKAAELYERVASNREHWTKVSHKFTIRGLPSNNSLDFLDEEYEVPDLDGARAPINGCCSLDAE
In words: Inhibition of bovine Phosphodiesterase 2.

Bounds are passed on as bounds.

Sequence of High affinity 3',5'-cyclic-AMP phosphodiesterase 7A (Q13946 whole entry): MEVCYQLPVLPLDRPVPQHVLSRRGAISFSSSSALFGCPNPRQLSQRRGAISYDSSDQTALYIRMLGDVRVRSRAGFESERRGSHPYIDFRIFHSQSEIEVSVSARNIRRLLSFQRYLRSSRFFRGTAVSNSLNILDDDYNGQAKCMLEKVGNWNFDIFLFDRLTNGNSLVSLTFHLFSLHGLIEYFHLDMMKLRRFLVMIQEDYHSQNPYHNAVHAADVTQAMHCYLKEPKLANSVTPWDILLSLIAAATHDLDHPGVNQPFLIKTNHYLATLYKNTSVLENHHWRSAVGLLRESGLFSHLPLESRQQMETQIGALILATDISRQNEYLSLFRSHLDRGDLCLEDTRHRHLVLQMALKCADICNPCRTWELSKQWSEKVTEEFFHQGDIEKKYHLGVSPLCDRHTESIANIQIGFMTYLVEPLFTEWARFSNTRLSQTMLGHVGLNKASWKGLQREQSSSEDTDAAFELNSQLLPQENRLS

The term Ki denotes the dissociation constant of the complex between target and ligand, obtained from inhibition or displacement. At Phosphodiesterase 4, `COC(=O)N1C[C@@H](c2ccc(OC)c(OC3CCCC3)c2)[C@](C)(CO)C1` came in with a Ki of 37 nM. That is a double-digit nanomolar value.

Turning to `COC(=O)N1C[C@H](C)[C@H](c2ccc(OC)c(OC3CCCC3)c2)C1`, the inhibition constant Ki at Phosphodiesterase 4 came to 100 nM.

Take `COC(=O)N1CC[C@H](c2ccc(OC)c(OC3CCCC3)c2)C1`: the inhibition constant (Ki) on Phosphodiesterase 4 was 110 nM. `COC(=O)N1C[C@@H](CO)[C@H](c2ccc(OC)c(OC3CCCC3)c2)C1` displayed an inhibition constant Ki on Phosphodiesterase 4 of 224 nM. On to `COC(=O)N1C[C@@H](c2ccc(OC)c(OC3CCCC3)c2)[C@](C)(C(C)=O)C1`, for which the Ki on Phosphodiesterase 1 is greater than 100000 nM; at Phosphodiesterase 3 it was greater than 100000 nM; in test [1], greater than 100000 nM; on Phosphodiesterase 6, greater than 100000 nM; at Phosphodiesterase 4, 1 nM; in test [2] it was 7900 nM. Also, the Ki in test [3] was greater than 100000 nM.

`CC[C@@]1(C(C)=O)CN(C(=O)OC)C[C@H]1c1ccc(OC)c(OC2CCCC2)c1` returned a Ki on Phosphodiesterase 4 of 10 nM. As for `CCOC(=O)[C@]1(C)CN(C(=O)OC)C[C@H]1c1ccc(OC)c(OC2CCCC2)c1`, the inhibition constant (Ki) at Phosphodiesterase 4 was 86 nM.

As to `COC(=O)N1C[C@@H](c2ccc(OC)c(OC3CCCC3)c2)[C@](C)(C(=O)OC)C1`, the inhibition constant Ki at Phosphodiesterase 4 came to 3 nM. Compared with the last compound, the Ki is about 29-fold lower.

As to `COC(=O)[C@@H]1CN(C(=O)OC)C[C@H]1c1ccc(OC)c(OC2CCCC2)c1`, the Ki at Phosphodiesterase 4 is 159 nM. `COC(=O)N1C[C@@H](C(C)=O)[C@H](c2ccc(OC)c(OC3CCCC3)c2)C1` returned a Ki at Phosphodiesterase 4 of 33 nM. Compared with the last compound, the Ki is about 4.8-fold lower. `CCOC(=O)[C@@H]1CN(C(=O)OC)C[C@H]1c1ccc(OC)c(OC2CCCC2)c1` gave an inhibition constant Ki on Phosphodiesterase 4 of 550 nM.
